# Assay: in vitro
# Settings: human, hela cells, % viability
row,SMILES,"viability at 28.5 h, 10 µM"
1,CCOC(=O)c1cccnc1-c1cncnc1 [CBK149236],118%
2,Cc1c(C(=O)Nc2nc(-c3ccc(S(=O)(=O)N4CCOCC4)cc3)cs2)oc2ccc(Cl)cc12 [CBK267663],93.7%
3,O=C(CCSS(=O)(=O)O)N1CCc2ccccc21 [CBK260892N],94.4%
4,CCCCc1ccc(-c2cnc3nc(O)ccc3c2)cc1 [CBK081296],69.9%
5,O=C(O)CCC(=O)NCCCc1ccccc1 [CBK265465],86.7%
6,CC1CCc2c(sc3ncn(C4CCNCC4)c(=O)c23)C1 (stereo not drawn) [CBK282349],91.4%
7,CC(C)[C@H]1CN(Cc2ccco2)CCN1C(=O)c1cscn1 [CBK285490],99.6%
8,COc1ccc(CN2CCN(c3nccnc3OC)CC2)cc1 [CBK084216],89.6%
9,COC(=O)c1ccc(N2CCN(C(C)c3nnc(C)o3)C(C)C2)cc1 (stereo not drawn) [CBK304926],108%
10,NC(=O)CO[C@@H]1CO[C@H]2[C@@H]1OC[C@@H]2NCc1ccccc1 [CBK289479],112%
11,Cc1nn(CC(=O)N2CCCCC2C)c(=O)c2cc3sccc3n12 (stereo not drawn) [CBK284141],70%
12,CC(C)Nc1nc2ccccc2nc1OCc1ccc(C2CC2C(=O)N(C)C)cc1 (stereo not drawn) [CBK166091],92.5%
13,Cc1ccc(C(=O)N[C@H]2CO[C@H]3[C@@H]2OC[C@@H]3n2cc(-c3ccccc3)nn2)cc1 [CBK289504],81.4%
14,CC1=CCCN(C(=O)C23CCOCC2CN(c2ncccn2)C3)C1 (stereo not drawn) [CBK304743],101%
15,COc1ccccc1CC(=O)N1CCCC(c2cc3ncccc3[nH]2)C1 (stereo not drawn) [CBK283417],95.4%
16,Cc1ccc(C2(c3ccc(C)cc3)CC2C(=O)Nc2ccccc2[N+](=O)[O-])cc1 (stereo not drawn) [CBK263591],93.3%
17,Cc1ccc(CNC(=O)Cc2ccc(-c3ccc(CN4CCC(C)CC4)cc3)nc2)cc1F [CBK158402],97.4%
18,COc1ccc(-c2ccc3ccc(=O)[nH]c3n2)cc1C [CBK073712],108%

row,SMILES,"viability at 28.5 h, 10 µM"
1,O=C(Nc1ccccc1)OCC(CN1CCCCC1)OC(=O)Nc1ccccc1 (stereo not drawn) [CBK023067C],103%
2,COc1cccc(C(=O)N2CCC[C@@H](N)[C@@H]2c2ccccc2F)c1 [CBK283457],88.1%
3,Cn1ccc(C2CCCCCN2S(=O)(=O)c2ccc(F)cc2)n1 (stereo not drawn) [CBK284671],98.8%
4,O=C(NC(=S)CC1C=NCS1)c1ccccc1 (stereo not drawn) [CBK020794],107%
5,Cc1nc(CCNC(=O)N(Cc2cnn(C)c2)C2CC2)nc2c1CCC2 [CBK307650],86.1%
6,COc1ccc(C(=O)NC(c2ccccc2Cl)c2cc(Cl)c3cccnc3c2O)cc1 (stereo not drawn) [CBK264036],88%
7,COc1cc(CNCc2ccccn2)ccc1OCc1ccccc1C [CBK270108C],89.3%
8,Cc1nc2ccccc2c2c1C(=O)N(c1cccc(C(=O)OCC(=O)c3ccccc3Cl)c1)C2=O [CBK265505],98.5%
9,NC(=S)c1c(Cl)cc(C(F)(F)F)cc1Cl [CBK011349],105%
10,CN1CCCc2ccc(S(=O)(=O)NCCc3cn4ccccc4n3)cc21 [CBK306170],82.8%
11,CNC(=O)CSc1nc2cc(Cl)ccc2c(=O)n1CC1CCCO1 (stereo not drawn) [CBK305937],86.9%
12,O=C(/C=C(\c1ccccc1)n1cncn1)c1ccc(Cl)cc1 [CBK262089],90.7%
13,C/C(=N\NC(=O)c1ccccc1O)c1ccc(NC(=O)c2ccc(C)cc2)cc1 [CBK261251],84.7%
14,CC1=CC(=O)OC1(O)c1ccc(Br)cc1 (stereo not drawn) [CBK022687],91.6%
15,Cc1nc(C(=O)N2CCn3nc(C(O)c4ccccc4)cc3C2)c(C)s1 (stereo not drawn) [CBK307474],92.5%
16,Cc1cc(CN2CCC(O)(c3cccnc3F)CC2)oc1C [CBK282124],83%
17,CCC1(CC)OC(NC(C)c2ccccc2F)=NC1=O (stereo not drawn) [CBK132018],87.1%
18,Nc1ncc(-c2ccc(Cl)cc2)nc1-c1ccc(CCC(=O)O)cc1 [CBK064063],92.9%
